Measured values reported in patent US20240075037A1, “SKIN BARRIER FUNCTION IMPROVING AGENT” (Japan Tobacco Inc., priority 2013, published 2024).
Read-outs that look alike come from different tables or passages of the source.

How the values were obtained:
[1] = tested on: Tape Stripping-treated mouse; experiment: NMF production increasing action in Tape Stripping-treated mouse (confocal Raman); format: in vivo; conditions: 0.5% (w/v) in acetone applied to auricle once a day, one, five and seven days after Tape Stripping, FIGS. 5, 6
Protocol: As an experimental animal, an 8 to 10 weeks old female C57BL/6j mouse {SHIMIZU Laboratory Supplies Co., Ltd.} was used.
The operation of sticking a cellophane adhesive tape {NICHIBAN CO. , Ltd.} on the inner side of the left auricle of the mouse and peeling the tape off <Tape Stripping> was repeated five times to peel off the cuticle. Each 0.02 mL of acetone <Vehicle> or 0.5% (w/v) test substance was applied to the site having undergone the Tape Stripping once a day until the sixth day after the Tape Stripping. On Day 1 of the Tape Stripping, acetone <Vehicle> or a test substance was applied one hour after the Tape stripping. Compound A or monocitrate of Compound B was used as a test substance.
After one, five and seven days from the Tape Stripping, the total NMF amount of the inner side of the left auricle was determined by an in vivo confocal Raman spectrometer {model 3510, River Diagnostics, Inc.}.
A Raman spectrum in the region of 400 to 1800 cm^−1 was measured at an excitation wavelength of 785 nm at intervals of 1 micrometer from the surface of the inner side of the left auricle to the depth of 8 micrometers. A total NMF amount was quantified as an amount per keratin by using Skin Tools 2.0 {River Diagnostics, Inc.}. […] An average value of the total NMF amount was calculated for each measurement depth, and was shown as an individual value at each depth.

[2] = tested on: contact dermatitis model mouse; experiment: Suppression of ear swelling in contact dermatitis model mouse (DNFB); format: in vivo; conditions: oral 0.3 or 3 mg/mL at 10 mL/Kg once a day, 24 hours from initiation, FIG. 7
Protocol: Using a contact dermatitis model mouse against DNFB <Non-Patent Literature 10>, the ear swelling suppressing action of the JAK inhibitor was evaluated. As an experimental animal, an 8 weeks old female C57BL/6j mouse {SHIMIZU Laboratory Supplies Co., Ltd.} was used.
An abdominal region of the mouse was shaved, and each 0.025 mL of 0.5% (w/v) DNFB {2,4-Dinitrofluorobenzene, Sigma-Aldrich Corporation} diluted with AOO <mixed solution of acetone and olive oil in 4:1> was applied on the abdominal region . After five days, each 0.01 mL of 0.3% (w/v) DNFB diluted with AOO was applied on the front and back of both the auricles of the mouse . For five days from the date of sensitization, 0.5% (w/v) methylcellulose <MC> was administered once a day to the Vehicle group, and 0.3 mg/mL or 3 mg/mL of Compound A suspended in 0.5% (w/v) MC was orally administered to Compound A administration group in a dose of 10 mL/Kg. Each group included three animals. On the days of sensitization and initiation, 0.5% (w/v) MC or Compound A was orally administered one hour before sensitization and initiation.
Before initiation and after 24 hours from initiation, the thickness of each auricle was measured once with a thickness gauge {TECLOCK Corporation}, and an average of the variation from the thickness of each auricle before initiation was taken as an individual value.

[3] = tested on: three-dimensional culture skin model TESTSKIN LSE-high; experiment: Increase in protein amount of skin barrier-related protein in three-dimensional culture skin model (Western blotting); format: cell-based, human; conditions: 1000 nmol/L
Protocol: Experiment 4. Increase in Protein Amount of Skin Barrier-Related Protein by JAK Inhibitor in Three-Dimensional Culture Skin Model
As a three-dimensional cultured skin model, TESTSKIN LSE-high {TOYOBO CO., LTD., TMLSE-013A} was used <Non-Patent Literature 11>. According to the instruction manual of the TESTSKIN LSE-high, the Living Skin Equivalent <LSE> tissue on the Transwell was cultured in an assay medium included in the kit at 37° C. under 5% CO2 for 24 hours.
After removing the medium from the LSE tissue culture system, an assay medium containing Compound A in a final concentration of 1000 nmol/L was added in the presence or absence of human IL-4 and human IL-13 {R&D Systems, Inc.} in a final concentration of 20 ng/mL, respectively, and the LSE tissue was cultured at 37° C. under 5% CO2 for three days. The medium was replaced in the same manner as described above, and the LSE tissue was cultured at 37 ° C. under 5% CO2 for another two days. The skin layer of the LSE tissue was collected in a tube, and 0.1 mL of a 50 mmol/L Tris-HCl (pH 8.0) buffer containing 9 mol/L urea, 2% Triton X-100, protease inhibitor cocktail {Sigma-Aldrich Corporation, P8340} and phosphatase inhibitor cocktail {NACALAI TESQUE, INC., 07575-51} was added, and lysed by ultrasonication. To the tissue lysate, 0.08 mL of laemmli SDS-PAGE sample buffer containing 1.73 mmol/L 2-mercaptoethanol was added, and heated at 95 degrees Celsius for five minutes to thermally denature proteins.
The thermally denatured proteins (0.015 mg/lane) were separated by SDS-polyacrylamide electrophoresis <SDS-PAGE> on 4-12% NuPAGE Bis-Tris gel {Life technologies Corporation}, and filaggrin protein and loricrin protein were detected by Western blotting method. As an internal standard, GAPDH protein was detected. According to ordinary methods, the protein that was separated by SDS-PAGE was blotted on a PVDF membrane {GE Healthcare Ltd.}, and the PVDF membrane was blocked with 5% skim milk {NACALAI TESQUE, INC.}. […] The protein of interest was detected by light exposure to an autoradiography film, Amersham Hyperfilm ECL {GE Healthcare Ltd.} from the PVDF membrane, by using a chemiluminescent substrate {ECL Western Blotting Detection Reagents; GE Healthcare Ltd., RPN2232} according to the instruction manual.

dry skin model mouse [4] = experiment: Profilaggrin mRNA amount in dry skin model mouse (quantitative real-time PCR); format: in vivo; conditions: dry skin (A/E/W) model mouse, 0.5% (w/v) topical once a day, Days 0, 3 and 6, ratio to Day 0; FIG. 10
Protocol: Experiment 5. Increase in Profilaggrin mRNA Amount, Increase of NMF Production and Acceleration of Reduction in TEWL by JAK Inhibitor in Dry Skin Model Mouse
(§1) “Production of Dry Skin Model Mouse”
(§2) Using a dry skin model mouse <Non-Patent Literature 12>, the effect of improving the skin barrier function by a JAK inhibitor was evaluated. As an experimental animal, an 8 weeks old female C57BL/6JJmsSlc mouse {Japan SLC, Inc.} was used.
(§3) Absorbent cotton dipped in a mixed liquid of acetone and diethyl ether (1:1) was put on the surface of the inner side of the right or both auricles of the mouse for 30 seconds, and then absorbent cotton dipped in water was put on the same region for 30 seconds <hereinafter, abbreviated as an A/E/W treatment>. This treatment was conducted twice a day for seven days for each group to produce a dry skin model. The day on which the A/E/W treatment started was taken as Day 0. […]
“Quantitative Real-Time PCR”
A mouse having undergone the A/E/W treatment on its right auricle was used in the experiment. […] The cDNA was analyzed by real-time PCR method <intercalator method> using Light Cycler 480 SYBR Green I Master {Roche Diagnostics K.K.} and Light Cycler 480 II {Roche Diagnostics K.K.}, and the Ct values of mouse profilaggrin and GAPDH were respectively determined. […] A relative mRNA amount of mouse profilaggrin was calculated by comparative Ct method. […]

dry skin model mouse [5] = experiment: NMF production in dry skin model mouse (confocal Raman); format: in vivo; conditions: dry skin (A/E/W) model mouse, 0.5% (w/v) topical once a day, Day 7; FIG. 11
Protocol: as §1, §2
as §3, with “model.” for “model. The day on which the A/E/W treatment started was taken as Day 0.”
A mouse having undergone the A/E/W treatment on its both auricles was used in the experiment. On Day 7, the total NMF amount of the stratum corneum of both the auricles of the mouse was determined by an in vivo confocal Raman spectrometer {model 3510, River Diagnostics, Inc.} <Compound A administration group and Vehicle group; n=3, respectively>.
A Raman spectrum in the region of 400 to 1800 cm^−1 was measured at an excitation wavelength of 785 nm at intervals of 1 micrometer from the surface of the inner side of the left auricle to the depth of 8 micrometers. A total NMF amount was quantified as an amount per keratin by using Skin Tools 2.0 {River Diagnostics, Inc.}. […]

dry skin model mouse [6] = experiment: TEWL in dry skin model mouse; format: in vivo; conditions: dry skin (A/E/W) model mouse, 0.5% (w/v) topical once a day, Days 0, 1, 3, 4 and 7; FIG. 12
Protocol: as §1, §2
as §3, with “0. As a normal control group, a mouse not having undergone the A/E/W treatment was used.” for “0.”
A mouse having undergone the A/E/W treatment on its right auricle was used in the experiment. TEWL in the region where the A/E/W treatment had been conducted was measured directly before the A/E/W treatment on Days 0, 1, 3 and 4, and on Day 7 <Compound A administration group and Vehicle group; n=4, respectively>. TEWL was measured by using a water loss measuring device VAPOSCAN AS-VT100RS {ASAHIBIOMED} at room temperatures (23° C. to 26° C.) and a humidity of 40% to 60%. […]

JAK = conditions: cited from earlier work
[7] = in the absence of IL-4/IL-13, five days
[8] = in the presence of IL-4/IL-13 20 ng/mL, five days, FIG. 8

Q: Which “total NMF amount (NMF production)” value [1] does the source give for `C[C@H]1CN(C(=O)CC#N)[C@]12CCN(c1ncnc3[nH]ccc13)C2` [Compound A, 3-[(3S,4R)-3-methyl-6-(7H-pyrrolo[2,3-d]pyrimidin-4-yl)-1,6-diazaspiro[3.4]octan-1-yl]-3-oxopropanenitrile] here?
A: NMF production increasing action

Q: And the “ear swelling (auricle thickness variation)” value [2]?
A: suppression of ear swelling

Q: What about the filaggrin protein amount [3, 7] of the same compound?
A: increase

Q: And the loricrin protein amount [3, 7]?
A: increase

Q: And the filaggrin protein amount [3, 8]?
A: increase

Q: And the loricrin protein amount [3, 8]?
A: increase

Q: What about the “profilaggrin mRNA amount” value (dry skin model mouse [4]) of the same compound?
A: increase

Q: And the “total NMF amount (NMF production)” value (dry skin model mouse [5])?
A: NMF production increasing action

Q: And the “TEWL (transepidermal water loss)” value (dry skin model mouse [6])?
A: accelerating a reduction in TEWL

Q: And the JAK inhibition (JAK; stated as known)?
A: known to inhibit JAK

Q: Which JAK inhibition (JAK) does the source give for `N#CC[C@H](C1CCCC1)n1cc(-c2ncnc3[nH]ccc23)cn1` [Compound C, (3R)-3-cyclopentyl-3-[4-(7H-pyrrolo[2,3-d]pyrimidin-4-yl)-1 H-pyrazol-1-yl]propanenitrile, reference compound] here?
A: known to inhibit JAK

Q: Which “total NMF amount (NMF production)” value [1] does the source give for `C[C@@H]1CCN(C(=O)CC#N)C[C@@H]1N(C)c1ncnc2[nH]ccc12` [monocitrate of Compound B, 3-{(3R,4R)-4-methyl-3-[methyl(7H-pyrrolo[2,3-d]pyrimidin-4-yl)amino]piperidin-1-yl}-3-oxopropanenitrile, reference compound] here?
A: NMF production increasing action
